Results: paper PMC11219871, “Epigenetic-based differentiation therapy for Acute Myeloid Leukemia” (Nature Communications, 2024)
Values joined by “and” are separate entries in the source; they are usually repeats but may differ in a detail not shown here. Identical values can stand only once.

Experiments:
G9a = target: T1, G9a (Homo sapiens, UniProt Q96KQ7); experiment: Epigenetic panel (BPS Bioscience); G9a TR-FRET IC50; assay type: biochemical
T1 sequence (Q96KQ7 1-1210): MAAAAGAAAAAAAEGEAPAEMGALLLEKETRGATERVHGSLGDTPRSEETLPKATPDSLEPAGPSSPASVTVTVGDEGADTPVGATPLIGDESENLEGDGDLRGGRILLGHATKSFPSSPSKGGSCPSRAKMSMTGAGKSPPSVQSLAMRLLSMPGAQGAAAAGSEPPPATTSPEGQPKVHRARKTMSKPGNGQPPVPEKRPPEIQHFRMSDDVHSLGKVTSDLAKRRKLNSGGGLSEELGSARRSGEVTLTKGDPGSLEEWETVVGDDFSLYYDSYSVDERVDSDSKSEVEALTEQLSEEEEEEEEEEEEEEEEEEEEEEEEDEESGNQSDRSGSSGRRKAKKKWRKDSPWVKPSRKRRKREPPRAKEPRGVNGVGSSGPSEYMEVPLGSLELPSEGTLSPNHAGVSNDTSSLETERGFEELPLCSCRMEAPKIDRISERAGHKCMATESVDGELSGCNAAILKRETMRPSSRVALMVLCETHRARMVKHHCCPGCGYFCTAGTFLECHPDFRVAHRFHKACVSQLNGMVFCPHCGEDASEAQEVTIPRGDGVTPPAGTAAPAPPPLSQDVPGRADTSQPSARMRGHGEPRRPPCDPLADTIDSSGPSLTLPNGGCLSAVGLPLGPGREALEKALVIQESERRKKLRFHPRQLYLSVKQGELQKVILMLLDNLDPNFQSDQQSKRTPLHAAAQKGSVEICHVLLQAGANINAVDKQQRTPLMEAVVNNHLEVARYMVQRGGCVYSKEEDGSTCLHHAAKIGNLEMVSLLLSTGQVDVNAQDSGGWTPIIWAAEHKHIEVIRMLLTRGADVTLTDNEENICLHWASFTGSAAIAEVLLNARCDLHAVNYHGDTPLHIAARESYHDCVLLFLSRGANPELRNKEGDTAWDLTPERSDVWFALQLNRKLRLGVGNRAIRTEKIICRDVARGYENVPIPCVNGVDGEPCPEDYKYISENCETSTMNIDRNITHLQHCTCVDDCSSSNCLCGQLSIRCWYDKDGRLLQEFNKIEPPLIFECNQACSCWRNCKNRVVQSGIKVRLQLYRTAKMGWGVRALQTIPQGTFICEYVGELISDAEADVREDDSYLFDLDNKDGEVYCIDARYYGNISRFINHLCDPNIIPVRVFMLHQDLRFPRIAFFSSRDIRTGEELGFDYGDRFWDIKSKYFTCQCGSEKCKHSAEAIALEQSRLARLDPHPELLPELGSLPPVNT
Experimental: DNMT1 and G9a IC50 values were measured using time-resolved fluorescence energy transfer assays, as described previously[18],[25],[26].
Binding experiments were performed in duplicate at a concentration of 10 μM.

[1] = test system: global 5-methylcytosine levels in HL-60, ML-2, MV4-11 and MOLM-13 cell lines; experiment: Dot blot; assay type: cell-based, human; details: HL-60, 270 nM CM-444 or 300 nM CM-1758, 48 h
Experimental: DNA purity and concentration were measured using a NanoDrop spectrophotometer (Thermo Scientific). A 500 ng amount of genomic DNA was loaded onto a nitrocellulose membrane (Amersham Hybond_N+, RPN203B, GE Healthcare), pre-wetted in 6X SSC for 10 min, using the Bio-Dot microfiltration apparatus (Cat No 170-6545, Bio-Rad) following the manufacturer’s instructions. Next, the membrane was incubated with 2X SSC for 5 min and cross-linked for 2 h at 80 °C. The membrane, after being blocked with Tropix I-block blocking reagent (Cat No AI300, Tropix) in PBS with 0.1% Tween 20 and 0.02 NaN3, was incubated with the primary antibody against 5-methylcytosine (monoclonal antibody 5-methylcytidine, Cat No BI-MECY-1000, Eurogentec) diluted 1:4000 o/n at 4 °C and then with alkaline phosphatase-conjugated secondary antibody. […] To ensure equal loading of total DNA on the membrane, the same blot was stained with 0.02% methylene blue in 0.3 M sodium acetate (pH 5.2).

[2] = test system: MOLM-13 i.v. in BALB/cA Rag2-/-γc-/- mice; experiment: Intravenous xenograft model (survival, CD11b in blood, body weight); assay type: in vivo, mouse; details: for overall survival (OS): MOLM-13 i.v., 10 mg/kg i.p., 5 days on/2 off, 2 weeks; for Body weight: intravenous MOLM-13 AML mouse model, individual mice
Experimental: (§1) The human AML MV4-11 and MOLM-13 xenograft mice models were generated by intravenous (i.v.) injection of 10 × 10^6 (MV4-11) or 1 × 10^4 (MOLM-13) cells diluted in 100 µL of saline solution in the tail vein of a 6-8-week-old female BALB/cA Rag2^−/−γc^−/− mice (n = 10). Treatment started 7 or 1 day after MV4-11 or MOLM-13 cells injection, respectively. MV4-11 and MOLM-13 mice were treated with i.p. 10 mg/kg of CM-444 and CM-1758 during 5 consecutive days followed by 2 resting days for 7 and 2 weeks, respectively. The control group received only 80% saline solution, 10% DMSO and 10% Tween 20 (diluents of CM-444 and CM-1758). The mice weight was controlled and remained stable during the treatment. Statistical results were calculated using the statistical software Medcalc. CD11b levels in blood samples from an intravenous MV4-11 mice model were measured by flow cytometry, as described above.

[3] = test system: MV4-11 i.v. in BALB/cA Rag2-/-γc-/- mice; experiment: as above; assay type: in vivo, mouse; details: for CD11b in blood samples / overall survival (OS): MV4-11 i.v., 10 mg/kg i.p.; for overall survival (OS): 5 days on/2 off, 7 weeks; for body weight of mice: intravenous MV4-11 AML mouse model, individual mice; for CD11b levels in blood samples: mice engrafted intravenously with MV4-11 cells, individual mice (Fig 3E); for Survival time (Kaplan-Meier, event = 1): mice engrafted with MV4-11 cells intravenously, individual mice (Fig 3D)
Experimental: as §1

Row | SMILES | IC50 (G9a) [µM] | inhibition at 10 µM (G9a) [%] | 5mC level (dot blot) [1] | overall survival (OS) [2] | Body weight ([2]; day 4) | Body weight ([2]; day 11) | Body weight ([2]; day 13) | CD11b in blood samples [3] | overall survival (OS) [3] | body weight of mice ([3]; day 25) | body weight of mice ([3]; day 28) | body weight of mice ([3]; day 30) | body weight of mice ([3]; day 31) | body weight of mice ([3]; day 37) | CD11b levels in blood samples [3] | Survival time (Kaplan-Meier, event = 1) [3] | further results
1 | COc1cc2nc(-c3cc(C)oc3C)cc(NCC3CCN(c4ncc(C(=O)NO)cn4)CC3)c2cc1OC [CM-1758, 2-[4-[[[2-(2,5-dimethyl-3-furyl)-6,7-dimethoxy-4-quinolyl]amino]methyl] -1-piperidyl]pyrimidine-5-carbohydroxamic acid] | > 10 | 9 | no changes | not having observed an increase in OS | 25.4 and 23.9 (2×) and 24.4 and 22.7 (2×) and 23.8 and 21.5 and 23 and 21.9 | 24.3 and 22.3 and 23.6 and 21.6 and 21.7 (2×) and 20.7 and 21 and 21.5 and 22.6 | 24.3 and 22.6 and 23.5 and 21.5 (2×) and 22.1 and 21.4 and 21.9 and 21.7 and 22.4 | statistically significant increase in CD11b | increased overall survival | 23.7 (2×) and 23.8 and 27.9 and 26.9 and 23.2 and 22.7 and 19.6 and 22.8 and 21.9 and 22.2 and 22 | 23.6 (2×) and 23.8 and 26.5 and 26.6 and 23.2 and 23.1 and 18.9 and 21.4 and 21.2 and 21.7 | 23.1 and 23.9 and 25.7 and 26.6 and 22.3 and 22.6 (2×) and 18.6 and 21 (2×) and 22.1 | 23.5 and 22.8 and 25.9 and 26.7 and 22.3 and 22.1 (2×) and 18.3 and 21.8 and 21.3 and 17.9 | 23.4 and 24.4 (2×) and 27.2 and 26.3 and 22.9 and 18.3 and 23.1 and 22 and 22.7 | 26.3% and 16.2% and 21.1% and 11.9% and 23.1% and 11% and 20.5% | 25 days and 32 days and 46 days and 48 days and 53 days and 57 days | Body weight ([2]; day 6): 25.4 and 23 and 24.3 and 22 and 22.6 and 21.4 and 22.8 (2×) and 22.1 and 22.4; Body weight ([2]; day 8, in g (unit assumed)): 24.7 and 22.7 and 23.8 and 22.6 and 21.8 and 21.7 and 22.1 and 21.9 and 22 and 22.8; body weight of mice ([3]; day 20, in g (unit assumed)): 25 and 24.9 and 24 and 26.8 and 24.5 and 23.3 and 20.4 and 22.9 and 24.6 and 23.8 and 22.8 and 23; body weight of mice ([3]; day 23, in g (unit assumed)): 23.9 and 24.6 and 28.5 and 27.5 and 23.5 and 23 and 19.4 and 23.1 and 23.8 and 22.2 and 22.5 and 22.4; body weight of mice ([3]; day 35, in g (unit assumed)): 24 and 22.9 and 26.1 and 26.8 and 22.4 and 23.1 and 19.4 and 22.5 and 22 and 22.1; body weight of mice ([3]; day 42, in g (unit assumed)): 25.8 and 24.7 and 28.1 and 26.1 and 23.8 and 24.5 and 20.5 and 23.3; body weight of mice ([3]; day 44, in g (unit assumed)): 26 and 25.3 and 28.3
2 | COc1cc2nc(-c3ccc(C)o3)cc(NCC3CCN(c4ncc(C(=O)NO)cn4)CC3)c2cc1OC [CM-444, 2-[4-[[[6,7-dimethoxy-2-(5-methyl-2-furyl)-4-quinolyl]amino]methyl]-1-piperidyl]pyrimidine-5-carbohydroxamic acid] | > 10 | 0 | no changes | not having observed an increase in OS | 22.8 and 24 (2×) and 25 and 23.7 and 22.6 (2×) and 23.6 and 23 and 25.3 | 21.7 and 22.4 and 23 and 24.4 and 22.3 and 22.8 and 22.2 (2×) and 21.4 and 24.5 | 22.1 (2×) and 23 and 23.1 and 24 and 22.7 and 22.9 and 22.3 and 21.2 and 24.8 | statistically significant increase in CD11b | increased overall survival | 26.4 and 24.4 and 24.5 and 23.9 and 24.8 (2×) and 25.1 (2×) and 23.7 and 27.9 and 26.1 and 24.2 | 25.9 and 24.3 and 24.1 (2×) and 22 and 24.6 (2×) and 25.3 and 25.1 and 27.9 and 26.2 and 24.2 | 26.4 and 24 (2×) and 23.8 and 20.4 and 24.3 and 25 and 24.7 and 24.2 and 27.6 and 25.5 and 24.5 | 25.8 and 24.8 (2×) and 24.4 and 22.9 and 25.7 and 24.5 and 23.7 and 27.3 and 24.6 and 24.7 | 26.5 and 24.6 and 24.4 and 25 (3×) and 27.2 (2×) and 27.7 and 27 | 7.18% and 15.3% and 22.1% and 21.14% and 13% and 34.5% and 22% and 9.14% and 7.78% | 32 days and 46 days and 48 days and 51 days and 53 days and 54 days | Body weight ([2]; day 6, in g (unit assumed)): 23.1 and 23.8 and 23.5 and 25 and 24.1 and 23.2 and 23 and 22.6 and 22 and 26.2; Body weight ([2]; day 8): 22 (2×) and 23.1 and 23.6 and 24.1 and 23.2 and 22.9 and 22.7 and 22.6 and 25.8; body weight of mice ([3]; day 20): 26 (2×) and 24.2 and 24.3 and 23.2 and 24.5 (2×) and 25.1 and 24.8 and 27 and 25.7 and 24; body weight of mice ([3]; day 23): 26.5 and 24.3 (3×) and 24.7 and 23.9 and 25.1 and 25.2 and 24.9 and 24.6 and 27.6 and 26.2; body weight of mice ([3]; day 35): 26.1 (2×) and 23.9 and 23.7 and 24.1 and 25.9 and 24.3 and 24.7 and 26.6 and 25; body weight of mice ([3]; day 42): 25.9 and 24.4 and 22.5 and 24.3 (2×) and 27 and 25.2 and 26.9 and 27.3
